Experimental data: patent US7732444B2, “2-(amino-substituted)-4-aryl pyrimidines and related compounds useful for treating inflammatory diseases” (Millennium Pharmaceuticals, Inc., priority 2004, dated 2010)

Target: T1, full length PKC θ (Homo sapiens, UniProt Q04759)
T1 construct: 15 μL of full length PKC θ (Panvera Corporation); purchased Panvera Corporation
Assay: PKC-theta isoform inhibition assay (HTRF, 384 well plate)
Format: biochemical
Conditions: full length PKC θ at 27 pM, peptide substrate 300 nM + 3 μM ATP, HTRF readout
Description: An in vitro assay for detecting and measuring inhibition activity against PKC-theta isoform by candidate pharmacological agents is useful for evaluating and selecting a compound that modulates PKC-theta isoform. An IC50 value can be calculated after running the assay. Following is an assay protocol for measuring PKC-theta isoform.
Per well of a 384 well plate, compounds at various concentrations in 5 μL of 20% DMSO were pre-incubated for about 30 minutes at about 25° C. with 15 μL of full length PKC θ (Panvera Corporation) at 27 pM in an assay buffer (25 mM Hepes, pH 7.5, 5 mM DTT, 10 mM MgCl2, 10 mM 2-glycerophosphate, 12.5 μg/mL 1,2-dioleoyl-rac-glycerol, 10 μg/mL L-α-phosphatidyl-L-serine, 0.1% Bovine Serum Albumin). 10 μL of peptide substrate (biotin-(CH2)6— RFARKGSLRQKNV —CONH2) at 300 nM+3 μM ATP were added to each well and incubated for about 1 hour before quenching with 10 μL of 250 mM EDTA. 40 μL of detection buffer (25 mM Hepes, pH 7.5, 100 mM KF, 0.1% Bovine Serum Albumin, 0.01% Tween20) containing 2 nM anti-phospho antibody 2B9 (MBL International) labeled with europium cryptate (Cis-Bio International) and 0.0064 μg/mL streptavidin-allophycocyanin (Prozyme) was added to each well and incubated for two hours. Signal was then read on a Discovery HTRF (Packard).

T1 sequence (Q04759 whole entry): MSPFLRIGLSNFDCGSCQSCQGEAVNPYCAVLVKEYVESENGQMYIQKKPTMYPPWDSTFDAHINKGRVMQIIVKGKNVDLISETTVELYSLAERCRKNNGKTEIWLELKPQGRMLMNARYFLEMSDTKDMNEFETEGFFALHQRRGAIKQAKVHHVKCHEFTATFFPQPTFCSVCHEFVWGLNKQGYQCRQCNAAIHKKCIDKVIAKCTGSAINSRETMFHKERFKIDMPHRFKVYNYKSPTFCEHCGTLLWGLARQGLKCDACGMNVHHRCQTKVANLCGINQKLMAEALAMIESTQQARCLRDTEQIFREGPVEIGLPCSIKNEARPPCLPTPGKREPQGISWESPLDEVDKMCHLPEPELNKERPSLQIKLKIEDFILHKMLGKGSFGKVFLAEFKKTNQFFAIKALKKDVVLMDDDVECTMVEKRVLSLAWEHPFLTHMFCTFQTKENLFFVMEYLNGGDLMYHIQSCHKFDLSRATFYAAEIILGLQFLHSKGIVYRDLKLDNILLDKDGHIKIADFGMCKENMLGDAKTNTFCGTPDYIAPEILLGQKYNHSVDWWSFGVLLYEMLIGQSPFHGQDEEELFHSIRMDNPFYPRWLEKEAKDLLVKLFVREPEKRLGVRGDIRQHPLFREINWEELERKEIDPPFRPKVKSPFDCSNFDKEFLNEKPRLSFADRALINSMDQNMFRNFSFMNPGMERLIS

Row | SMILES | IC50 [nM]
1 | CCN(CC)CCCN(CC)Cc1cccc(-c2ccnc(NCCc3ccc(O)cc3)n2)c1 [Compound 126] | < 100
2 | CCN(CCCN)Cc1cccc(-c2nc(NCCc3ccc(O)c(F)c3)ncc2F)c1 [Compound 143, 4-{2-[4-(3-{[(3-Amino-propyl)-ethyl-amino]-methyl}-phenyl)-5-fluoro-pyrimidin-2-ylamino]-ethyl}-2-fluoro-phenol] | < 100
3 | CS(=O)(=O)N(CCCNS(=O)(=O)Cc1ccccc1)Cc1cccc(-c2ccnc(NCCc3ccc(O)cc3)n2)c1 [Compound 64, N-{3-[(3-{2-[2-(4-Hydroxy-phenyl)-ethylamino]-pyrimidin-4-yl}-benzyl)-methanesulfonyl-amino]-propyl}-C-phenyl-methanesulfonamide] | < 100
4 | CS(=O)(=O)N(CCCN)Cc1cccc(-c2ccnc(NCCc3cc(Cl)c(O)c(Cl)c3)n2)c1 [Compound 29, N-(3-Amino-propyl)-N-(3-{2-[2-(3,5-dichloro-4-hydroxy-phenyl)-ethylamino]-pyrimidin-4-yl}-benzyl)-methanesulfonamide] | < 100
5 | COc1ccc(CCNc2nccc(-c3cccc(CN(CCCN)S(C)(=O)=O)c3)n2)cc1O [Compound 8, N-(3-Amino-propyl)-N-(3-{2-[2-(3-hydroxy-4-methoxy-phenyl)-ethylamino]-pyrimidin-4-yl}-benzyl)-methanesulfonamide] | < 100
6 | CS(=O)(=O)N(CCCN)Cc1cccc(-c2ccnc(NCCc3ccc(O)c(O)c3)n2)c1 [Compound 6, N-(3-Amino-propyl)-N-(3-{2-[2-(3,4-dihydroxy-phenyl)-ethylamino]-pyrimidin-4-yl}-benzyl)-methanesulfonamide] | < 100
7 | CCN(CC)CCCNCc1cccc(-c2ccnc(NCCc3ccc(O)cc3)n2)c1 [Compound 125, 4-[2-(4-{3-[(3-Diethylamino-propylamino)-methyl]-phenyl}-pyrimidin-2-ylamino)-ethyl]-phenol] | < 100
8 | CCN(CCCN)Cc1cccc(-c2ccnc(NCCc3ccc(O)cc3)n2)c1 [Compound 1, (4-{2-[4-(3-{[(3-Amino-propyl)-ethyl-amino]-methyl}-phenyl)-pyrimidin-2-ylamino]-ethyl}-phenol)] | < 100

The remaining lines, values ahead:

Row | IC50 [nM] | SMILES
9 | < 100 | Oc1ccc(CCNc2nccc(-c3cccc(NC4CCNC4)c3)n2)cc1 (stereo not drawn) [Compound 55, 4-(2-{4-[3-(Pyrrolidin-3-ylamino)-phenyl]-pyrimidin-2-ylamino}-ethyl)-phenol]
10 | < 100 | CCN(CCC1CCCCN1)Cc1cccc(-c2ccnc(NCCc3ccc(O)c(Cl)c3)n2)c1 (stereo not drawn) [Compound 289, 2-chloro-4-(2-(4-(3-((ethyl(2-(piperidin-2-yl)ethyl)amino)methyl)phenyl)pyrimidin-2-ylamino)ethyl)phenol]
11 | < 100 | COc1cc(CCNc2nccc(-c3cccc(OC(C)C)c3)n2)ccc1O [Compound 107, 4-{2-[4-(3-Isopropoxy-phenyl)-pyrimidin-2-ylamino]-ethyl}-2-methoxy-phenol]
12 | < 100 | C[C@H]1CNCCN1Cc1cccc(-c2ccnc(NCCc3cccc(F)c3)n2)c1 [Compound 130, [2-(3-Fluoro-phenyl)-ethyl]-{4-[3-(2-(S)-methyl-piperazin-1-ylmethyl)-phenyl]-pyrimidin-2-yl}-amine]
13 | < 100 | Oc1ccc(CCNc2nccc(-c3cccc(CN4CC5CC4CN5)c3)n2)cc1 (stereo not drawn) [Compound 266, 4-(2-{4-[3-(2,5-Diaza-bicyclo[2.2.1]hept-2-ylmethyl)-phenyl]-pyrimidin-2-ylamino}-ethyl)-phenol]
14 | < 100 | CS(=O)(=O)N(CCCN)Cc1cccc(-c2ccnc(NCCc3cccc(O)c3)n2)c1 [Compound 26, N-(3-Amino-propyl)-N-(3-{2-[2-(3-hydroxy-phenyl)-ethylamino]-pyrimidin-4-yl}-benzyl)-methanesulfonamide]
15 | < 100 | O=C(NCC1CCNC1)c1cccc(-c2ccnc(NCCc3ccc(O)cc3)n2)c1 (stereo not drawn) [Compound 67, 3-{2-[2-(4-Hydroxy-phenyl)-ethylamino]-pyrimidin-4-yl}-N-pyrrolidin-3-ylmethyl-benzamide]
